US20240238417A1, “METHODS OF PRODUCING TUMOR VACCINES AND USES THEREOF” (priority 2021, published 2024)

Assays:
CT26 challenge tumor [1] = test: Challenge assay in CT26 tumor-bearing mice; format: in vivo
Protocol: (§1) Challenge tumor inoculation: Up to 21 days after gas treatment was applied to the primary tumor, the appropriate cancer cell suspensions were prepared as described herein and inoculation of cells was repeated on the contralateral flank of the mice. Administration was performed as soon as possible following cell suspension preparation and after manual shaking prior to withdrawal of the cell suspension.
(§2) The percentage of challenge tumor take was monitored 2-3 times a week by taking a look at the inoculated site and touching this area to look for small tumors that are not yet visible. Naïve mice inoculated with tumor cells for the first time served as an internal control.
In another challenge assay, the tumors of CT26 tumor-bearing mice were treated with 25,000-200,000 ppm gNO delivered into the tumors using 23G hypodermic needles, as depicted in FIG. 17A.
CT26 tumor-bearing mice treated with 25,000 ppm for 30 minutes, were re-inoculated with CT26 tumor cells 12 days after treatment (n=1) and 14 days after treatment (n=1). The percentage of visible challenge tumor take was assessed 2-3 times a week for more than 50 days.
An additional group of CT26 tumor-bearing mice were treated with 50,000 ppm for 10 minutes, and were re-inoculated with CT26 tumor cells 7 days (n=1) or 9 days (n=1) after treatment. The percentage of challenge tumor take was assessed 2-3 times a week for 12 days.
An additional group of CT26 tumor-bearing mice were treated with 200,000 ppm for 2-35 seconds, were re-inoculated with CT26 tumor cells 14 days (n=2) post treatment. The percentage of visible challenge tumor take was assessed 2-3 times a week for more than 50 days.
Naïve mice, inoculated with CT26 for the first time, served as the control group.
The effect of high-pressure gas treatment on stimulation of anti-tumor immune response was tested in a challenge assay as depicted in FIG. 37A.
Balb/c mice were inoculated subcutaneously (s.c) with the mouse colon cancer cell line, CT26. […]

CT26 challenge tumor [2] = test: gNO, tumor excision and CT26 re-challenge: tumor take and survival; format: in vivo, mice; details: about 75 days
Protocol: CT26 tumor-bearing male mice were treated with 20,000 ppm and 50,000 ppm gNO intra-tumorally for 5 minutes. Fourteen days post gNO treatment, all tumors were excised. A week post surgery, all mice were re-challenged via a second inoculation of 5×10^5 CT26 cells, and tumor take and survival were monitored during about 75 days, as depicted in FIG. 21A.

4T1 challenge tumor = test: Challenge assay in 4T1 tumor-bearing mice; format: in vivo; details: 50,000 ppm gNO intra-tumorally for 10 minutes
Protocol: as §1, §2
In another challenge assay, 4T1 tumor-bearing mice were treated with 50,000 ppm gNO administered intra-tumorally by a 23G hypodermic needle for 10 minutes, and the effect of a local treatment with gNO on the primary tumor as compared to nitrogen was tested, as depicted in FIG. 16A. Fourteen days post gNO treatment, mice were re-inoculated with 10×10^5 4T1 cells subcutaneously (s.c.) (challenge assay). The percentage of tumor take was monitored by caliper measurements 2-3 times a week for 10 days. Naïve mice, inoculated with 4T1 for the first time, served as the control group. […]

CT26 tumor = test: Combined gNO and surgery, CT26 tumor recurrence; format: in vivo, mice; details: then excision
Protocol: The following in vivo experimental procedures were carried out in accordance with the protocol approved by the Ethics Committee on the Use and Care of Animals. Institutional Animal Care and Use Committee (IACUC): IL-20-3-149.
CT26 tumor-bearing mice were treated with 20,000 ppm and 50,000 ppm gNO intra-tumorally for 5 minutes. Up to fourteen days post gNO treatment, all tumors were excised, and the recurrence rate was monitored for 89 days post-excision. Tumor recurrence was detected 17 days post treatment.

Panc02.03 cells = test: XTT viability of Panc02.03 cells after gas exposure in chamber; format: cell-based; details: 10,000 ppm-25,000 ppm gNO for 1-15 minutes
Excerpt: Tumor celllines: The mouse colon carcinoma cell line, CT26WT, was cloned from CT26, an N-nitroso-N-methylurethane-induced, undifferentiated colon carcinoma cell line. The mouse mammary tumor cell line, 4T1, is a 6-thioguanine resistant cell line. When injected into BALB/c mice, 4T1 spontaneously produces highly metastatic tumors that can metastasize to the lung, liver, lymph nodes and brain while the primary tumor is growing in situ. […] Panc 02.03 is a pancreatic adenocarcinoma epithelial cell line derived in 1995 from a primary tumor removed from the head-of-the-pancreas of […] with pancreatic adenocarcinoma. CT26, 4T1 and Panc 02.03 cell lines were grown in RPMI based media (ATCC 30-2001) supplemented with fetal bovine serum and pen-strep (both from Biological Industries). The LLC1/LU2 cell line was grown in DMEM based media (ATCC 30-2002) supplemented with fetal bovine serum and pen-strep (Biological industries). The B16.F10 cell lines was grown in DMEM based media (ATCC 30-2002) supplemented with fetal bovine serum and pen-strep (Biologicalindustries).
In vitro systems: One system involves a direct exposure of cancer cells to gNO in 96-well plate. Gaseous NO at 150 ppm-50,000 ppm was delivered at 0.3 LPM for 10 seconds—3 minutes. In another system, cancer cells were exposed to gNO in a box made of acrylic glass. […]

## [N]=O [gNO, nitric oxide]
CT26 challenge tumor [1]; 25,000 ppm 30 minutes, 50,000 ppm 10 minutes or 200,000 ppm 2-35 seconds, naive mice 100% tumor take
  secondary CT26 tumor cell inoculation at end of follow-up: all NO-treated mice rejected a secondary CT26 tumor cell inoculation
CT26 challenge tumor [1]; 25,000 ppm gNO, 0.25 LPM, two 15-minute cycles, outlet pressure 3.5-5.17 bars
  tumor-free mice, no primary and challenge tumors: 50%
CT26 challenge tumor [1]; 25,000 ppm gNO, 0.25 LPM, two 15-minute cycles, outlet pressure 3.5-5.17 bars, re-inoculated days 12-14
  development of a secondary (challenge) CT26 tumor: have not developed a secondary tumor
CT26 challenge tumor [2]; 20,000 ppm and 50,000 ppm gNO 5 minutes, excision day 14, re-challenge a week post surgery
  challenge tumor development: no tumor development
CT26 challenge tumor [2]; 50,000 ppm gNO 5 minutes, excision, re-challenge
  survival: 100%
4T1 challenge tumor; 5 days post challenge tumor inoculation
  development of a secondary (challenge) 4T1 tumor: have not developed a secondary tumor
4T1 challenge tumor; 10 days post re-inoculation
  challenge tumor take compared to non-treated and nitrogen-treated mice: a delay in the challenge tumor take was achieved
CT26 tumor; 20,000 ppm gNO intra-tumorally 5 minutes, 17 days post-surgery
  tumor recurrence: about 18%
CT26 tumor; 50,000 ppm gNO intra-tumorally 5 minutes, 17 days post surgery
  tumor recurrence: 0%
Panc02.03 cells
  viability of Panc02.03 cells: less than 5%
